Key:
[1] = system: platelets; conditions: cited from earlier work
[2] = system: Female CD1 mice; experiment: Topical chemical erythema: inhibition of TPA induced erythema on the mouse ear; type: in vivo; conditions: applied to the right ear in 5µl, 20 minutes prior to TPA (0.1µg/5µl)
Description: Ref. Williamson E.M. and Evans F. (1981), Inhibition of erythema induced by proinflammatory esters of 12-deoxyphorbol. Acta Pharmacol. Toxicol.,48, 47-52
Female CD1 mice, weighing approximately 20g were used. • 2. Test plant extracts as produced in Example 1 were applied externally to the right ear of each mouse, at predetermined concentrations in 5µl quantities, 20 minutes prior to the application of the irritant compound 12-O-tetradecanoylphorbal-13-acetate (TPA)(0.1µg/5µl). • 3. A […] response was indicated by redness and inflammation of the ear. • 4. Observations were recorded at 2,3,4,6,7, and 24 hours after the application of TPA. Maximum inflammation caused by TPA alone occurs at 6 hours after the application of TPA.
Erythema of the mouse ear is the simplest experiment to perform as mice have translucent ears in which reddening is easily visible. Quantification is subjective, however the erythema can be described as pronounced, slight or absent. • Isoliquiritigenin ED50 (dose required to inhibit erythema in at least 50% of the animals) 20-50,µg • Licochalcone B ED50 5-10µg • Echinatin ED50 5-10µg

[3] = system: swiss 3T3 mouse fibroblast cells; experiment: Cell culture 3[H] thymidine assay, Example 6.3 inhibition of TPA induced proliferation (24 hours prior incubation with compound); type: cell-based; conditions: compound 24 hours before compound + 0.5µM TPA
Description: (§1) Cells used were swiss 3T3 mouse fibroblast cells • 1. 6 x 24 well plates were required for each experiment. • 2. Cells were removed from the standard tissue culture flask using a 1% solution of EDTA and resuspended in 10 ml of media and pipetted off into a falcon tube. • 3. The cells were then spun for 5 minutes at about 2,000rpm. • 4. The existing media was removed, and the cells again resuspended in 10ml of 10% foetal calf serum (FCS) and vortexed. • 5. The 10ml of suspension was then added to 140ml of media and mixed in a sterile jar. 1ml of the media cell suspension was then placed into each well and the plates incubated until confluent, three days .
(§2) • 1. [PCl]Cells were dosed with the test compounds (as specified below) 2 days prior to the addition of 3 [H]thymidine. The cells could only be dosed with a 0.5% solution, 5µl test solution in 1ml cellsuspension i.e. 5µl in 1ml, (TPA - 0.5µM). • 2. 0.5µl of 3[H] thymidine was added per well, therefore 72µl was added to 144µl of media (1%F.C.S.) to dose the corresponding six plates. • 3. 100µl of the media was taken to measure the measure the radioactive dose […], and added to 4ml of scintillation fluid. • 4. The radioactive media was then transferred to sterile specimen tubes and dosed with the test compounds before adding to the cells. • 5. After four hours ofbeing pulsed with radiolabelled thymidine (0.5µCi/ml) the media was removed and washed down the sink. • 6. The cells were washed twice with ice cold phosphate buffered saline (PBS), 0.5ml per well, and incubated for 30 min using ice cold 5% trichloroacetic acid (TCA) ( 1ml) per well at room temperature. • 8. The TCA was then removed and another 1ml of 5% TCA was added for 5 minutes. After the TCA was removed and 0.3NaOH and 0.1% sodium dodecyl sulphate added to each well for 30 minutes (1ml/well). • 9. The contents of each well was added to scintillation vials containing 4ml of scintillation fluid and each sample counted for four minutes using a scintillation counter. Three different assays were carried out using this protocol; • 6.1. Cytotoxicity testing of the compounds. After 48 hours of incubation and the cells were confluent a predetermined quantity of the test compounds was added to the cells. • 6.2. Inhibition of TPA induced proliferation. After 48 hours a preditermined quantity concentration of the test compounds was added to the cells as well as 0.5um of TPA. […] Inhibition of TPA induced proliferation. After 48 hours a predetermined quantity concentration of the test compounds was added to the cells for 24 hours, at 72 hours the media was changed again to contain both test compound and 0.5µM of the TPA. The objective of this experiment was to observe whether the prior incubation with the test compound had any effect on the TPA induced proliferation of the cells.

[4] = system: Blood platelets; experiment: Inhibition of blood platelet aggregation (TPA or ADP induced) in platelet rich plasma; type: cell-based, human; conditions: for Percentage Inhibition of ADP Induced Aggregation: ADP 6.4 µg; for Percentage Inhibition of TPA Induced Aggregation: TPA 0.5µg
Description: Blood platelets release inflammatory mediators in response to an external stimulus, which affect the proliferation of the cells, which is an important part of the disease psoriasis. • 1. Male human blood was collected via venipucture of the forearm directly in to anticoagulant buffer, from healthy donors who had denied any medication for two weeks, and centrifuged at 1000rpm for 20 minutes at room temperature. • 2. The supernatant was employed as platelet rich plasma (PRP). Platelet poor plasma (PPP) was obtained by centrifuging 1ml of PRP at 11,000 rpm for 10 minutes. • 3. Inhibition of platelet aggregation was tested by adding 2.5µl of a known concentration (containing 10µg or 50µg) of the test compound to a 500µl sample ofPRP for one minute. An aggregation agent was then added as a solution to the sample in a 2.5µl quantity (containing TPA 0.5,µg or ADP 6.4 µg). Aggregation was measured using a dual channel aggregometer . • 4. Aggregation was taken as the % change in light transmission compared to the maximum change produced by TPA or ADP plus the control solution. PRP was used as a standard for zero light transmission and PP for 100% light transmission.

[5] = system: swiss 3T3 mouse fibroblast cells; experiment: Cell culture 3[H] thymidine assay, Example 6.2 inhibition of TPA induced proliferation (compound added together with TPA); type: cell-based; conditions: with 0.5µM TPA
Description: as §1, §2

[6] = system: platelet aggregation; conditions: in rats, compared with aspirin; cited from earlier work
[7] = system: swiss 3T3 mouse fibroblast cells; experiment: Cell culture 3[H] thymidine assay, Example 6.1 cytotoxicity testing (normal cell growth); type: cell-based; conditions: cytotoxicity, no TPA
Description: as §1, §2

[8] = system: male Wistar rats; experiment: UV-B induced erythema (dermatitis) in rat, epidermal thickness and number of epidermal cell layers; type: in vivo; conditions: five days; for No. of cells (epidermal proliferation as compared to the control, no treatment) / Thickness (epidermal thickening as compared to the control, no treatment): control = 100
Description: Rat UV-B induced dermatitis is characterised by a brownish red lesion with scab formation. Histologically, microvascular dilation, intraepidermal accumulation ofleukocytes and hyperproliferation of epidermal cells are all very similar to the symptoms of psoriasis in man (Nakaguma,H., Int. J.ofExp.Path, 76:65-73, 1995) • 1. Hair on the dorsal skin of male Wistar rats (180g) was clipped and shaved, whilst the rats were under anaesthesia, 24 hours prior to the experiment. • 2. The rats were covered by a black plastic sheeting, with two rectangular holes (about 1cm^2) cut out, thus allowing two exposure sites on the dorsal skin whilst protecting the rest of the animal. • 3. The rats were then exposed to UV-B light (302nm) at a distance of 10cm for six minutes and thirty seconds. The total W-B exposure was 2.4J/cm^2 as measured using a UV-X radiometer. • 4. The test compound was then placed onto one of the exposed areas and an unexposed area at a concentration of 100µg/5µl, in a suitable vehicle solution. • 5. Application of the test compound was repeated for five days. • 6. Histological post-mortem sections were taken on the fifth day, and stained using haematoxylin and eosin. The number ofepidermal cell layers and the epidermal thickness was counted and measured at random. Five animals were used per test group.

[9] = system: human polymorphonuclear neutrophils; conditions: properties associated with inflammatory processes; cited from earlier work
[10] = Conc. 10µg test compound in 500µl PRP
[11] = Conc. 50µg test compound in 500µl PRP
[12] = Active Compound Only, unexposed area, 100µg/5µl
[13] = UV Exposure + Active Compound versus UV Exposure, 100µg/5µl
[14] = UV Exposure + Active Compound, 100µg/5µl topical

SMILES: CCCCCCCCCCCCCC(=O)O[C@@H]1[C@@H](C)[C@@]2(O)[C@@H](C=C(CO)C[C@]3(O)C(=O)C(C)=C[C@@H]23)[C@@H]2C(C)(C)[C@]12OC(C)=O [TPA, 12-O-tetradecanoylphorbol-13-acetate]
- concentration causing irreversible platelet aggregation [1]: 0.2 µM

SMILES: O=C(/C=C/c1ccc(O)cc1)c1ccc(O)cc1O [Isoliquiritigenin, isoliquiritigenin]
- ED50 (dose required to inhibit erythema in at least 50% of the animals) [2]: 20 to 50 µg
- Percentage Inhibition of 3T3 Swiss Fibroblast Growth, Example 6.3 ([3]; Concentration 0.01 µg): 31%
- Percentage Inhibition of 3T3 Swiss Fibroblast Growth, Example 6.3 ([3]; Concentration 0.1 µg): 39%
- Percentage Inhibition of 3T3 Swiss Fibroblast Growth, Example 6.3 ([3]; Concentration 1 µg): 50%
- Percentage Inhibition of 3T3 Swiss Fibroblast Growth, Example 6.3 ([3]; Concentration 10 µg): 47%
- Percentage Inhibition of 3T3 Swiss Fibroblast Growth, Example 6.3 ([3]; Concentration 20 µg): 61%
- Percentage Inhibition of ADP Induced Aggregation [4, 10]: 20%
- Percentage Inhibition of TPA Induced Aggregation [4, 10]: 3%
- Percentage Inhibition of ADP Induced Aggregation [4, 11]: 26%
- Percentage Inhibition of TPA Induced Aggregation [4, 11]: 13%
- inhibiting blood platelet aggregation, result in words ([4]; comparison among the three chalcones, especially ADP induced aggregation): most active
- Percentage Inhibition of 3T3 Swiss Fibroblast Growth, Example 6.2 ([5]; Concentration 0.01 µg): 6%
- Percentage Inhibition of 3T3 Swiss Fibroblast Growth, Example 6.2 ([5]; Concentration 0.1 µg): +4%
- Percentage Inhibition of 3T3 Swiss Fibroblast Growth, Example 6.2 ([5]; Concentration 1 µg): 4%
- Percentage Inhibition of 3T3 Swiss Fibroblast Growth, Example 6.2 ([5]; Concentration 10 µg): 28%
- Percentage Inhibition of 3T3 Swiss Fibroblast Growth, Example 6.2 ([5]; Concentration 20 µg): 29%
- level of inhibition of platelet aggregation [6]: comparable to aspirin
- Percentage Inhibition of 3T3 Swiss Fibroblast Growth, Example 6.1 ([7]; Concentration 0.01 µg): 20%
- Percentage Inhibition of 3T3 Swiss Fibroblast Growth, Example 6.1 ([7]; Concentration 0.1 µg): 18%
- Percentage Inhibition of 3T3 Swiss Fibroblast Growth, Example 6.1 ([7]; Concentration 1 µg): 32%
- Percentage Inhibition of 3T3 Swiss Fibroblast Growth, Example 6.1 ([7]; Concentration 10 µg): 32%
- Percentage Inhibition of 3T3 Swiss Fibroblast Growth, Example 6.1 ([7]; Concentration 20 µg): 54%
- No. of cells (epidermal proliferation as compared to the control, no treatment) [8, 12]: 103%
- Thickness (epidermal thickening as compared to the control, no treatment) [8, 12]: 102%
- Percentage inhibition of epidermal proliferation (No. of cells, in brackets) [8, 13]: (77) %
- Percentage inhibition of epidermal thickening (in brackets) [8, 13]: (71) %
- No. of cells (epidermal proliferation as compared to the control, no treatment) [8, 14]: 119%
- Thickness (epidermal thickening as compared to the control, no treatment) [8, 14]: 116%
- effect on degranulation in human polymorphonuclear neutrophils [9]: had no effect

Reference: EP0998939A1, “Chalcone plant extracts for use in therapy” (THE SCHOOL OF PHARMACY, UNIVERSITY OF LONDON, priority 1998, dated 2000)
